# Reference: patent US10080366B2, “Agent for increasing sugar content in fruit” (RIKEN, priority 2012, dated 2018)
# Like-named read-outs stand apart in the source and are kept apart here.
# Tested on: fruit of grape in a farm field
# Procedure: To the fruit of grape in a farm field before harvest, potassium hydrogen carbonate diluted with water to a concentration of 10 g/L (Table 17) or 20 g/L (Table 18) was applied three times in total at intervals of 7 days. The grape was harvested 21 days after the first application, and the masses of amino acids contained in each of the fruit of grape treated with potassium hydrogen carbonate and untreated fruit of grape were measured. In addition, the degree of increase in the concentration of each amino acid in the grape treated with potassium hydrogen carbonate in comparison with the concentration of the amino acid in the untreated grape was determined as a ratio of “the concentration of the amino acid in the grape treated with potassium hydrogen carbonate/the concentration of the amino acid in the untreated grape.” Moreover, the sugar contents in the grape treated with potassium hydrogen carbonate and the untreated grape were also measured, and the ratio (the sugar content in the grape treated with potassium hydrogen carbonate/the sugar content in the untreated grape) was determined.
# Arg: arginine, GluNH2: glutamine, Orn: ornithine, Ala: alanine, NH3: ammonia, Cit: citrulline, AspNH2: asparagine, a-ABA: α-amino-n-butyric acid, Glu: glutamic acid, Asp: aspartic acid, Thr: threonine, Ser: serine, Lys: lysine, His: histidine, Gly: glycine, Phe: phenylalanine, Sar: sarcosine, Val: valine, Cys: cysteine, b-AiBA: β-aminoisobutyric acid, PEA: phosphoethanolamine, a-AAA: α-aminoadipic acid, EOHNH2: ethanolamine, b-Ala: β-alanine, Leu: leucine, g-ABA: […], Ile: isoleucine, Met: methionine, Urea: urea, Trp: tryptophan, Tyr: tyrosine, and Cysthi: cystathionine.
structure (smiles),measurement,setting,value
"O=C([O-])O.[K+] [Potassium hydrogen carbonate, potassium hydrogen carbonate]","Ala, Ratio treated/untreated",10 g/L x3,5.229
same,"Ala, Treated Mass",10 g/L x3,601.952 ng
same,"Arg, Ratio treated/untreated",10 g/L x3,10.658
same,"Asp, Ratio treated/untreated",10 g/L x3,2.694
same,"Asp, Treated Mass",10 g/L x3,89.293 ng
same,"AspNH2, Ratio treated/untreated",10 g/L x3,3.987
same,"AspNH2, Treated Mass",10 g/L x3,14.746 ng
same,"Cit, Ratio treated/untreated",10 g/L x3,4.673
same,"Cit, Treated Mass",10 g/L x3,11.464 ng
same,"Cys, Ratio treated/untreated",10 g/L x3,1.154
same,"Cys, Treated Mass",10 g/L x3,117.021 ng
same,"Cysthi, Ratio treated/untreated",10 g/L x3,0.457
same,"Cysthi, Treated Mass",10 g/L x3,1.016 ng
same,"EOHNH2, Ratio treated/untreated",10 g/L x3,1.02
same,"EOHNH2, Treated Mass",10 g/L x3,53.297 ng
same,"Glu, Ratio treated/untreated",10 g/L x3,2.915
same,"Glu, Treated Mass",10 g/L x3,1091.265 ng
same,"GluNH2, Ratio treated/untreated",10 g/L x3,7.046
same,"GluNH2, Treated Mass",10 g/L x3,347.152 ng
same,"Gly, Ratio treated/untreated",10 g/L x3,1.553
same,"Gly, Treated Mass",10 g/L x3,25.939 ng
same,"His, Ratio treated/untreated",10 g/L x3,1.615
same,"His, Treated Mass",10 g/L x3,96.252 ng
same,"Ile, Ratio treated/untreated",10 g/L x3,0.875
same,"Ile, Treated Mass",10 g/L x3,72.435 ng
same,"Leu, Ratio treated/untreated",10 g/L x3,1.012
same,"Leu, Treated Mass",10 g/L x3,110.503 ng
same,"Lys, Ratio treated/untreated",10 g/L x3,1.768
same,"Lys, Treated Mass",10 g/L x3,18.865 ng
same,"Met, Ratio treated/untreated",10 g/L x3,0.839
same,"Met, Treated Mass",10 g/L x3,6.131 ng
same,"NH3, Ratio treated/untreated",10 g/L x3,4.713
same,"NH3, Treated Mass",10 g/L x3,438.689 ng
same,"Orn, Ratio treated/untreated",10 g/L x3,6.692
same,"Orn, Treated Mass",10 g/L x3,23.882 ng
same,"PEA, Ratio treated/untreated",10 g/L x3,1.032
same,"PEA, Treated Mass",10 g/L x3,87.942 ng
same,"Phe, Ratio treated/untreated",10 g/L x3,1.527
same,"Phe, Treated Mass",10 g/L x3,51.201 ng
same,"Sar, Ratio treated/untreated",10 g/L x3,1.271
same,"Sar, Treated Mass",10 g/L x3,62.178 ng
same,"Ser, Ratio treated/untreated",10 g/L x3,2.585
same,"Ser, Treated Mass",10 g/L x3,360.511 ng
same,"Sugar content, Ratio treated/untreated",10 g/L x3,1.06
same,"Sugar content, Treated",10 g/L x3,22.6%
same,"Thr, Ratio treated/untreated",10 g/L x3,2.615
same,"Thr, Treated Mass",10 g/L x3,342.259 ng
same,"Total, Ratio treated/untreated",10 g/L x3,2.203
same,"Total, Treated Mass",10 g/L x3,1082.09 ng
same,"Trp, Ratio treated/untreated",10 g/L x3,0.641
same,"Trp, Treated Mass",10 g/L x3,4.840 ng
same,"Tyr, Ratio treated/untreated",10 g/L x3,0.59
same,"Tyr, Treated Mass",10 g/L x3,17.739 ng
same,"Urea, Ratio treated/untreated",10 g/L x3,0.757
same,"Urea, Treated Mass",10 g/L x3,105.062 ng
same,"Val, Ratio treated/untreated",10 g/L x3,1.256
same,"Val, Treated Mass",10 g/L x3,191.700 ng
same,"a-AAA, Ratio treated/untreated",10 g/L x3,1.031
same,"a-AAA, Treated Mass",10 g/L x3,3.261 ng
same,"a-ABA, Ratio treated/untreated",10 g/L x3,3.246
same,"a-ABA, Treated Mass",10 g/L x3,9.038 ng
same,"b-AiBA, Ratio treated/untreated",10 g/L x3,1.129
same,"b-AiBA, Treated Mass",10 g/L x3,9.663 ng
same,"b-Ala, Ratio treated/untreated",10 g/L x3,1.019
same,"b-Ala, Treated Mass",10 g/L x3,197.064 ng
same,"g-ABA, Ratio treated/untreated",10 g/L x3,0.891
same,"g-ABA, Treated Mass",10 g/L x3,637.915 ng
same,"Arg, Treated Mass","10 g/L x3, harvest 21 days after first application",1383.991 ng
same,"1Mehis, Ratio treated/untreated",20 g/L x3,1.167
same,"1Mehis, Treated Mass",20 g/L x3,1.184 ng
same,"Ala, Ratio treated/untreated",20 g/L x3,6.161
same,"Ala, Treated Mass",20 g/L x3,709.236 ng
same,"Arg, Ratio treated/untreated",20 g/L x3,15.532
same,"Asp, Ratio treated/untreated",20 g/L x3,2.614
same,"Asp, Treated Mass",20 g/L x3,86.648 ng
same,"AspNH2, Ratio treated/untreated",20 g/L x3,7.214
same,"AspNH2, Treated Mass",20 g/L x3,26.684 ng
same,"Cit, Ratio treated/untreated",20 g/L x3,12.285
same,"Cit, Treated Mass",20 g/L x3,30.134 ng
same,"Cys, Ratio treated/untreated",20 g/L x3,1.41
same,"Cys, Treated Mass",20 g/L x3,142.979 ng
same,"Cysthi, Ratio treated/untreated",20 g/L x3,0.3
same,"Cysthi, Treated Mass",20 g/L x3,0.667 ng
same,"EOHNH2, Ratio treated/untreated",20 g/L x3,1.164
same,"EOHNH2, Treated Mass",20 g/L x3,76.497 ng
same,"Glu, Ratio treated/untreated",20 g/L x3,1.85
same,"Glu, Treated Mass",20 g/L x3,693.282 ng
same,"GluNH2, Ratio treated/untreated",20 g/L x3,11.395
same,"GluNH2, Treated Mass",20 g/L x3,561.408 ng
same,"Gly, Ratio treated/untreated",20 g/L x3,1.847
same,"Gly, Treated Mass",20 g/L x3,34.546 ng
same,"His, Ratio treated/untreated",20 g/L x3,2.312
same,"His, Treated Mass",20 g/L x3,137.818 ng
same,"Ile, Ratio treated/untreated",20 g/L x3,1.149
same,"Ile, Treated Mass",20 g/L x3,95.120 ng
same,"Leu, Ratio treated/untreated",20 g/L x3,1.387
same,"Leu, Treated Mass",20 g/L x3,151.405 ng
same,"Lys, Ratio treated/untreated",20 g/L x3,2.452
same,"Lys, Treated Mass",20 g/L x3,26.170 ng
same,"Met, Ratio treated/untreated",20 g/L x3,1.325
same,"Met, Treated Mass",20 g/L x3,9.698 ng
same,"NH3, Ratio treated/untreated",20 g/L x3,4.845
same,"NH3, Treated Mass",20 g/L x3,450.976 ng
same,"Orn, Ratio treated/untreated",20 g/L x3,11.668
same,"Orn, Treated Mass",20 g/L x3,41.643 ng
same,"PEA, Ratio treated/untreated",20 g/L x3,1.644
same,"PEA, Treated Mass",20 g/L x3,140.112 ng
same,"Phe, Ratio treated/untreated",20 g/L x3,1.961
same,"Phe, Treated Mass",20 g/L x3,65.750 ng
same,"Sar, Ratio treated/untreated",20 g/L x3,1.5191
same,"Sar, Treated Mass",20 g/L x3,74.309 ng
same,"Ser, Ratio treated/untreated",20 g/L x3,3.553
same,"Ser, Treated Mass",20 g/L x3,495.547 ng
same,"Sugar content, Ratio treated/untreated",20 g/L x3,1.24
same,"Sugar content, Treated",20 g/L x3,25.9%
same,"Thr, Ratio treated/untreated",20 g/L x3,3.174
same,"Thr, Treated Mass",20 g/L x3,415.421 ng
same,"Total, Ratio treated/untreated",20 g/L x3,2.525
same,"Total, Treated Mass",20 g/L x3,1239.923 ng
same,"Trp, Ratio treated/untreated",20 g/L x3,0.973
same,"Trp, Treated Mass",20 g/L x3,7.348 ng
same,"Tyr, Ratio treated/untreated",20 g/L x3,0.994
same,"Tyr, Treated Mass",20 g/L x3,29.898 ng
same,"Val, Ratio treated/untreated",20 g/L x3,1.587
same,"Val, Treated Mass",20 g/L x3,242.163 ng
same,"a-AAA, Ratio treated/untreated",20 g/L x3,1.408
same,"a-AAA, Treated Mass",20 g/L x3,4.352 ng
same,"a-ABA, Ratio treated/untreated",20 g/L x3,3.555
same,"a-ABA, Treated Mass",20 g/L x3,9.898 ng
same,"b-AiBA, Ratio treated/untreated",20 g/L x3,1.12
same,"b-AiBA, Treated Mass",20 g/L x3,9.588 ng
same,"b-Ala, Ratio treated/untreated",20 g/L x3,1.202
same,"b-Ala, Treated Mass",20 g/L x3,232.373 ng
same,"g-ABA, Ratio treated/untreated",20 g/L x3,1.811
same,"g-ABA, Treated Mass",20 g/L x3,1298.441 ng
same,"Arg, Treated Mass","20 g/L x3, harvest 21 days after first application",2018.4554 ng
